The values that follow come from ChEMBL document CHEMBL1201862, “PubChem BioAssay data set” (2004).

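Grown in 96-well plates, cells were treated for 48 hours with each compound at five concentrations. Insufficient inhibition: endpoint recorded as highest concentration tested. Here, GI50 denotes the concentration required for 50% inhibition of growth.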 The source made the active and inactive calls. No stated cut-off is given here; in the data, active = GI50 up to about 1.1 µM and inactive = higher. Bridge positions count the residues as written; N and C are the ends. Where a SMILES comes first, the peptide text is derived from it. Square brackets hold non-standard residues; d marks the D form. Peptide text beside a SMILES is read from it. I, II: the chains in the order shown. The star is where a group is joined. * marks the point of attachment. Quinoxaline2carbonyl = O=C(c1cnc2ccccc2n1)*; NMeV = CN[CH](C(=O)O)C(C)C; NMeC = CN[CH](CS)C(=O)O; Boc = CC(C)(C)OC(=O)*; nBu = CCCC* Bounds are passed on as bounds.

Common to all, as to assay: NCI tumour cell line growth inhibition, 48 h
Assay [1] deals with CCRF-CEM.
For assay [2], the system named is DU-145.
The subject of assay [3] is HCT-15.
Assay [4] deals with HOP-62.
The test system of assay [5] is MCF7.
Assay [6] has as its system MOLT-4.
Assay [7] deals with NCI-H226.
The subject of assay [8] is OVCAR-3.
In assay [9] the test system is SK-MEL-2.
Assay [10] deals with SK-MEL-5.
Assay [11] concerns SN12C.
The test system of assay [12] is TK-10.
For assay [13], the system named is U-251.
Assay [14] relates to UACC-257.
For assay [15], the system named is UACC-62.

With `COC(=O)Nc1nc2ccc(S(=O)(=O)SC)cc2[nH]1`, the GI50 in assay [1] is 3.52 µM (inactive); in assay [2], 6.05 µM (inactive); in [3] it was 3.89 µM; in assay [4], 21.1 µM (inactive); in assay [5], 4.94 µM (inactive); in assay [6], 2.89 µM (inactive). The GI50 in [7] was 6.27 µM (inactive); in [8] it was 4.86 µM (inactive); in [9], 7.19 µM (inactive); in assay [10], 5.28 µM (inactive); in [11], 10.9 µM (inactive); in assay [12], 8.09 µM (inactive). The GI50 was 5.51 µM (inactive) in assay [13], 10.8 µM (inactive) in [14] and 3.9 µM (inactive) in assay [15].
Regarding `CC(C)(C)OC(=O)N1CCCC1C(=O)NC(c1ccccc1)c1ccccc1` (stereo not given), the GI50 in [1] was > 100 µM (inactive); in assay [2], > 100 µM (inactive); in assay [3] it was > 100 µM; in [4], > 100 µM (inactive); in assay [5], > 100 µM (inactive); in assay [6], > 100 µM (inactive). Also, the GI50 in assay [7], in assay [8], in assay [9], in assay [10], in assay [11] and in [12] was > 100 µM (inactive) in each case. Moreover, the GI50 in assay [13], in [14] and in [15] was > 100 µM (inactive) each time.
On to `COC(=O)[C@@H](Nc1ccccc1)[C@@]1(C(=O)OC)SC12c1ccccc1-c1ccccc12`, for which the GI50 is 39.4 µM (inactive) in assay [1]; > 100 µM (inactive) in assay [2]; 23.9 µM in assay [3]; > 100 µM (inactive) in assay [4]; 34.2 µM (inactive) in assay [5]; 24.4 µM (inactive) in assay [6]. The GI50 in [7] was > 100 µM (inactive); in assay [8] it was 43.2 µM (inactive); in [9] it was 74.6 µM (inactive); in assay [10] it was 41.4 µM (inactive); in assay [11], 44.6 µM (inactive); in [12], > 100 µM (inactive). Also, the results for the GI50 in assay [13], in assay [14] and in assay [15] were 44.1 µM (inactive), 84.3 µM (inactive) and 45.2 µM (inactive), respectively.
In the case of `COC(=O)CCc1ccc2c(c1)[C@H](C(=O)OC)[C@@H](c1ccc(O)cc1)O2`, the GI50 in assay [1] is 59.2 µM (inactive); in assay [2], > 100 µM (inactive); in assay [3] it was 58.9 µM; in assay [4], > 100 µM (inactive); in assay [5], 72.9 µM (inactive); in assay [6] it was 35.6 µM (inactive). For the same compound, the GI50 in [7] was 25.5 µM (inactive); in assay [8], > 100 µM (inactive); in assay [9] it was > 100 µM (inactive); in assay [10], 40.1 µM (inactive); in [11] it was > 100 µM (inactive); in assay [12], > 100 µM (inactive). For the same compound, the GI50 in assay [13], in assay [14] and in assay [15] was > 100 µM (inactive) each time.
`CC1NC(=O)C(NC(=O)c2cnc3ccccc3n2)COC(=O)C(C(C)C)N(C)C(=O)C2CSSCC(C(=O)N(C)C(C(C)C)C(=O)OCC(NC(=O)c3cnc4ccccc4n3)C(=O)NC(C)C(=O)N2C)N(C)C1=O` (stereo not given) (I: Quinoxaline2carbonyl-SA[NMeC][NMeV] / II: Quinoxaline2carbonyl-SA[NMeC][NMeV]; ester I:1-II:C, I:C-II:1; disulfide I:3-II:3; configuration not given here): the GI50 was < 0.01 µM (active) in [1]; < 0.01 µM (active) in [2]; < 0.01 µM in assay [3]; < 0.01 µM (active) in assay [4]; < 0.01 µM (active) in assay [5]; < 0.01 µM (active) in assay [6]. Further, the GI50 in assay [7] is < 0.01 µM (active); in assay [8] it was < 0.01 µM (active); in assay [9], < 0.01 µM (active); in assay [10], 0.0316 µM (active); in [11] it was < 0.01 µM (active); in assay [12], < 0.01 µM (active). Also, the GI50 in [13], in assay [14] and in [15] was < 0.01 µM (active) in each case.
As to `COCCOCCOCCOc1ccc(C(C#N)N(CCc2ccccc2)C(=O)c2cc(C(=O)N(CCc3ccccc3)C(C#N)c3ccc(OCCOCCOCCOC)cc3)cc(C(=O)N(CCc3ccccc3)C(C#N)c3ccc(OCCOCCOCCOC)cc3)c2)cc1` (stereo not given), the GI50 in assay [1] was > 100 µM (inactive); in assay [2] it was > 100 µM (inactive); in assay [3], > 100 µM; in [4], > 100 µM (inactive); in [5] it was > 100 µM (inactive); in [6] it was > 100 µM (inactive). Besides, the GI50 in assay [7], in [8], in [9], in assay [10], in assay [11] and in assay [12] was > 100 µM (inactive) throughout. The GI50 in assay [13], in assay [14] and in assay [15] was > 100 µM (inactive) in each case.
For the compound `CCCCCC(=O)OCC1(CO)C/C(=C\CC(C(C)C)C(C)C)C(=O)O1` (stereo not given), the GI50 was 26.4 µM (inactive) in assay [1]; > 100 µM (inactive) in assay [2]; 75.2 µM in [3]; 39 µM (inactive) in assay [4]; 78.7 µM (inactive) in assay [5]; 17.9 µM (inactive) in [6]. Also, the GI50 in assay [7] was 65.5 µM (inactive); in assay [8], > 100 µM (inactive); in [9], > 100 µM (inactive); in [10], 38.4 µM (inactive); in assay [11] it was 31.6 µM (inactive); in assay [12] it was > 100 µM (inactive). Besides, the GI50 was 25.1 µM (inactive) in assay [13], > 100 µM (inactive) in [14] and > 100 µM (inactive) in assay [15].
As for `COc1ccc(CCn2cnc3ccccc32)cc1`, the GI50 in assay [1] was > 100 µM (inactive); in [2] it was > 100 µM (inactive); in assay [3], > 100 µM; in assay [4], > 100 µM (inactive); in assay [5], > 100 µM (inactive); in [6] it was > 100 µM (inactive). The GI50 in assay [7], in [8], in assay [9], in [10], in assay [11] and in [12] was > 100 µM (inactive) each time. The GI50 in [13], in [14] and in assay [15] was > 100 µM (inactive) throughout.
Regarding `CC(=C(C(N)=O)C(N)=O)C1C=C(c2cccs2)CC(c2ccc(Cl)cc2)=C1O` (stereo not given), the GI50 in assay [1] is 26.2 µM (inactive); in [2], 63.5 µM (inactive); in assay [3], 20.9 µM; in [4], > 100 µM (inactive); in [5], 8.95 µM (inactive); in [6], 21.9 µM (inactive). Besides, the GI50 is 73.6 µM (inactive) in [7]; 22.3 µM (inactive) in assay [8]; > 100 µM (inactive) in assay [9]; 20.3 µM (inactive) in assay [10]; 32 µM (inactive) in [11]; 45.3 µM (inactive) in assay [12]. The GI50 in assay [13] is 35.6 µM (inactive); in [14], 14.5 µM (inactive); in assay [15], 25.1 µM (inactive).
On to `CC(=O)Oc1ccccc1/C=C/C(=O)/C=C/c1ccccc1OC(C)=O`, for which the GI50 in [1] is 0.501 µM (active); in assay [2] it was 3.08 µM (inactive); in assay [3], 2.09 µM; in assay [4], 2.44 µM (inactive); in [5] it was 0.959 µM (active); in assay [6], 1.36 µM (inactive). Further, the GI50 is 1.81 µM (inactive) in assay [7]; 1.66 µM (inactive) in [8]; 3.79 µM (inactive) in assay [9]; 1.84 µM (inactive) in assay [10]; 1.9 µM (inactive) in [11]; 3.39 µM (inactive) in assay [12]. Also, the GI50 in assay [13] is 1.51 µM (inactive); in assay [14], 1.36 µM (inactive); in assay [15] it was 1.64 µM (inactive).
Regarding `Cc1ccc(SCC(CF)OC(C)n2cnc3c(O)nc(N)nc32)cc1` (stereo not given), the GI50 was > 100 µM (inactive) in [1]; > 100 µM (inactive) in assay [2]; > 100 µM in assay [3]; > 100 µM (inactive) in assay [4]; 34.9 µM (inactive) in assay [5]; 50.5 µM (inactive) in assay [6]. Further, the GI50 was > 100 µM (inactive) in assay [7]; 88.7 µM (inactive) in [8]; > 100 µM (inactive) in assay [9]; 18.1 µM (inactive) in assay [10]; > 100 µM (inactive) in assay [11]; > 100 µM (inactive) in assay [12]. The GI50 was > 100 µM (inactive) in assay [13], 48.4 µM (inactive) in assay [14] and > 100 µM (inactive) in assay [15].
In the case of `CCCCOc1ccc(CC(NC(=O)OC(C)(C)C)C(=O)NC(C)C(=O)NC(Cc2ccccc2)C(=O)NCC(N)=O)cc1` (stereo not given) (Boc-Y(nBu)AFG-NH2; configuration not given here), the GI50 was 24.3 µM (inactive) in assay [1]; > 100 µM (inactive) in assay [2]; > 100 µM in [3]; > 100 µM (inactive) in assay [4]; 41.1 µM (inactive) in assay [5]; 23 µM (inactive) in [6]. Moreover, the GI50 in assay [7] is > 100 µM (inactive); in assay [8], > 100 µM (inactive); in [9] it was 18.7 µM (inactive); in assay [10], > 100 µM (inactive); in assay [11] it was > 100 µM (inactive); in [12], > 100 µM (inactive). Moreover, the figures for the GI50 in assay [13], in assay [14] and in assay [15] were 59.4 µM (inactive), > 100 µM (inactive) and > 100 µM (inactive), respectively.
For `NC(Cc1cccc([N+](=O)[O-])c1)C(=O)O` (stereo not given), the GI50 in [1] was > 100 µM (inactive); in assay [2], > 100 µM (inactive); in [3] it was > 100 µM; in assay [4], > 100 µM (inactive); in assay [5] it was > 100 µM (inactive); in assay [6], > 100 µM (inactive). Moreover, the GI50 in assay [7], in assay [8], in assay [9], in assay [10], in [11] and in [12] was > 100 µM (inactive) in each case. Moreover, the GI50 in assay [13], in assay [14] and in assay [15] was > 100 µM (inactive) in each case.
